Measurements as given in patent US20060069132A1, “Azolecarboxamide herbicides” (priority 2004, published 2006).

Columns and labels:
barnyardgrass [1] = assay: Test B pre-/postemergence herbicide test; assay type: in vivo, Echinochloa crus-galli; details: for Plant response rating (0 to 100 scale), Barnyardgrass: 0 is no effect, preemergence
In short: (§1)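 Visual rating, 0 (no effect) to 100 (complete control), versus untreated controls after 13–15 d in greenhouse. Pre- and postemergence applications (postemergence plants 2–18 cm, 1–4 leaves); flooded paddy arm at 2-leaf stage. Compounds in non-phytotoxic solvent plus surfactant.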

Surinam grass = assay: Test B pre-/postemergence herbicide test; assay type: in vivo, Urochloa decumbens; details: for Plant response rating (0 to 100 scale), Surinam Grass: 0 is no effect, 100 is complete control, preemergence; for Surinam Grass plant response rating: scale 0 (no effect) to 100 (complete control)
In short: (§2)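 Seeds were planted and treated preemergence with compounds formulated in a non-phytotoxic solvent mixture containing surfactant, while plants at the 1- to 4-leaf stage (2 to 18 cm) received postemergence sprays. Flooded paddy plants were grown to the 2-leaf stage. After 13 to 15 days in a greenhouse, injury was visually rated 0–100 against untreated controls.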

cocklebur = assay: Test B pre-/postemergence herbicide test; assay type: in vivo, Xanthium strumarium; details: for Plant response rating (0 to 100 scale), Cocklebur: 0 is no effect, preemergence
In short: as §1

corn = assay: Test B pre-/postemergence herbicide test; assay type: in vivo, Zea mays; details: for Plant response rating (0 to 100 scale), Corn: 0 is no effect, preemergence
In short: as §2

large crabgrass = assay: Test B pre-/postemergence herbicide test; assay type: in vivo, Digitaria sanguinalis; details: for Plant response rating (0 to 100 scale), Crabgrass, Large: 0 is no effect, preemergence
In short: as §2

giant foxtail = assay: Test B pre-/postemergence herbicide test; assay type: in vivo, Setaria faberi; details: for Plant response rating (0 to 100 scale), Foxtail, Giant: 0 is no effect, preemergence
In short: as §2

lambsquarters = assay: Test B pre-/postemergence herbicide test; assay type: in vivo, Chenopodium album; details: for Plant response rating (0 to 100 scale), Lambsquarters: 0 is no effect, 100 is complete control, preemergence; for Lambsquarters plant response rating: scale 0 (no effect) to 100 (complete control)
In short: as §2

morningglory = assay: Test B pre-/postemergence herbicide test; assay type: in vivo, Ipomoea coccinea; details: for Plant response rating (0 to 100 scale), Morningglory: 0 is no effect, 100 is complete control, preemergence; for Morningglory plant response rating: scale 0 (no effect) to 100 (complete control)
In short: as §1

pigweed = assay: Test B pre-/postemergence herbicide test; assay type: in vivo, Amaranthus retroflexus; details: for Plant response rating (0 to 100 scale), Pigweed: 0 is no effect, 100 is complete control, preemergence; for Pigweed plant response rating: scale 0 (no effect) to 100 (complete control)
In short: as §2

velvetleaf = assay: Test B pre-/postemergence herbicide test; assay type: in vivo, Abutilon theophrasti; details: for Plant response rating (0 to 100 scale), Velvetleaf: 0 is no effect, 100 is complete control, preemergence; for Velvetleaf plant response rating: scale 0 (no effect) to 100 (complete control)
In short: as §2

blackgrass = assay: Test B postemergence herbicide test; assay type: in vivo, Alopecurus myosuroides
In short: (§3)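 Visual ratings, 0 (no effect) to 100 (complete control), made versus controls after 13–15 d greenhouse. Paddy plants treated at 2-leaf stage; postemergence plants at 1- to 4-leaf stage, 2–18 cm tall.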

wheat = assay: Test B postemergence herbicide test; assay type: in vivo, Triticum aestivum; set-up: key to Wheat plant response rating: 0 = no effect, 100 = complete control
In short: (§4)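 Treated at 2-leaf (paddy) or 1–4-leaf, 2–18 cm (postemergence); greenhouse 13–15 d; visual score vs control, 0 none to 100 complete control; dash = not tested.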

wild oat = assay: Test B postemergence herbicide test; assay type: in vivo, Avena fatua; details: scale 0 (no effect) to 100 (complete control)
In short: as §4

rice [2] = assay: Test B flooded paddy test; assay type: in vivo, Oryza sativa; details: 1000 g ai/ha, scale 0 to 100 (0 no effect, 100 complete control)
In short: as §3

[3] = test system: small flower umbrella sedge; assay: Test B flooded paddy test; assay type: in vivo, Cyperus difformis; details: 1000 g ai/ha, scale 0 to 100 (0 no effect, 100 complete control)
In short: as §3

ducksalad [4] = assay: Test B flooded paddy test; assay type: in vivo, Heteranthera limosa; details: 1000 g ai/ha, scale 0 to 100 (0 no effect, 100 complete control)
In short: as §3

barnyardgrass [5] = assay: Test B flooded paddy test; assay type: in vivo, Echinochloa crus-galli; details: 1000 g ai/ha, scale 0 to 100 (0 no effect, 100 complete control)
In short: as §3

rice [6] = assay: Test C flooded paddy test; assay type: in vivo, Oryza sativa; details: for Plant response rating, Rice: 500 g ai/ha, visual rating after 12 to 14 days
In short: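 Postemergence sprays applied to plants 2 to 18 cm tall (1- to 4-leaf stage); paddy species grown to 2-leaf stage under flooding. After 12 to 14 days in greenhouse, visual rating versus untreated controls on 0–100 scale (0 no effect, 100 complete control).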

[7] = test system: smallflower umbrella sedge; assay: Test C flooded paddy test; assay type: in vivo, Cyperus difformis; details: for Plant response rating, Sedge, Umbrella: 500 g ai/ha, visual rating after 12 to 14 days
ducksalad [8] = assay: Test C flooded paddy test; assay type: in vivo, Heteranthera limosa; details: for Plant response rating, Ducksalad: 500 g ai/ha, visual rating after 12 to 14 days
barnyardgrass [9] = assay: Test C flooded paddy test; assay type: in vivo, Echinochloa crus-galli; details: for Plant response rating, Barnyardgrass: 500 g ai/ha, visual rating after 12 to 14 days
In short: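 After a postemergence application at 1 to 4 leaves (plants 2–18 cm high), or at 2 leaves for barnyardgrass in flooded paddy, plants stayed in the greenhouse for 12 to 14 days. Damage was then judged visually relative to control plants, with 100 indicating complete control.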

[10] = 125 g ai/ha, 100 is complete control
[11] = 125 g ai/ha, visual rating, scale 0 (no effect) to 100 (complete control), postemergence
[12] = postemergence, 500 g ai/ha, scale 0 to 100, 0 is no effect, 100 is complete control
[13] = 125 g ai/ha, visual rating, postemergence
[14] = 500 g ai/ha, scale 0 to 100, 0 no effect, 100 complete control, preemergence
[15] = Postemergence, 500 g ai/ha, scale 0 (no effect) to 100 (complete control)
[16] = 125 g ai/ha, scale 0 to 100 (0 no effect, 100 complete control)
[17] = 250 g ai/ha, scale of 0 to 100, 0 is no effect, 100 is complete control
[18] = scale 0 to 100 (0 no effect, 100 complete control)
[19] = 62 g ai/ha, scale 0 to 100 (0 no effect, 100 complete control)

C=CCNC(=O)c1ccc(F)c(NC(=O)c2nn(C(C)(C)C)nc2CC)c1 [Compound 383]
Plant response rating (0 to 100 scale), Barnyardgrass (barnyardgrass [1]; [10]): 10 | Barnyardgrass plant response rating (barnyardgrass [1]; [11]): 0 | Barnyardgrass plant response rating (barnyardgrass [1]; [12]): 0 | Plant response rating (0 to 100 scale), Surinam Grass (Surinam grass; 125 g ai/ha): 10 | Surinam Grass plant response rating (Surinam grass; [13]): 10 | Surinam Grass plant response rating (Surinam grass; Postemergence, 500 g ai/ha): 20 | Plant response rating (0 to 100 scale), Cocklebur (cocklebur; [10]): 0 | Cocklebur plant response rating (cocklebur; [11]): 0 | Cocklebur plant response rating (cocklebur; [12]): 10 | Plant response rating (0 to 100 scale), Corn (corn; [10]): 0 | Corn plant response rating (corn; [11]): 0 | Corn plant response rating (corn; [12]): 0 | Plant response rating (0 to 100 scale), Crabgrass, Large (large crabgrass; [10]): 50 | Crabgrass, Large plant response rating (large crabgrass; [11]): 0 | Crabgrass, Large plant response rating (large crabgrass; [12]): 10 | Plant response rating (0 to 100 scale), Foxtail, Giant (giant foxtail; [10]): 10 | Foxtail, Giant plant response rating (giant foxtail; [11]): 0 | Foxtail, Giant plant response rating (giant foxtail; [12]): 0 | Plant response rating (0 to 100 scale), Lambsquarters (lambsquarters; 125 g ai/ha): 40 | Lambsquarters plant response rating (lambsquarters; [13]): 20 | Lambsquarters plant response rating (lambsquarters; Postemergence, 500 g ai/ha): 30 | Plant response rating (0 to 100 scale), Morningglory (morningglory; 125 g ai/ha): 0 | Morningglory plant response rating (morningglory; [13]): 10 | Morningglory plant response rating (morningglory; Postemergence, 500 g ai/ha): 10 | Plant response rating (0 to 100 scale), Pigweed (pigweed; 125 g ai/ha): 0 | Pigweed plant response rating (pigweed; [13]): 20 | Pigweed plant response rating (pigweed; Postemergence, 500 g ai/ha): 30 | Plant response rating (0 to 100 scale), Velvetleaf (velvetleaf; 125 g ai/ha): 10 | Velvetleaf plant response rating (velvetleaf; [13]): 10 | Velvetleaf plant response rating (velvetleaf; Postemergence, 500 g ai/ha): 40 | Blackgrass plant response rating (blackgrass; [11]): 0 | Blackgrass plant response rating (blackgrass; [12]): 20 | Wheat plant response rating (wheat; [11]): 0 | Wheat plant response rating (wheat; [14]): 10 | Wheat plant response rating (wheat; [15]): 0 | Oat, Wild plant response rating (wild oat; [13]): 0 | Oat, Wild plant response rating (wild oat; Postemergence, 500 g ai/ha): 20 | Rice plant response rating (rice [2]): 60 | Sedge, Umbrella plant response rating [3]: 80 | Ducksalad plant response rating (ducksalad [4]): 70 | Barnyardgrass plant response rating (barnyardgrass [5]): 30 | Rice plant response rating (rice [6]; 62 g ai/ha, scale 0 to 100): 0 | Rice plant response rating (rice [6]; [16]): 5 | Rice plant response rating (rice [6]; [17]): 35 | Plant response rating, Rice (rice [6]; [18]): 50 | Sedge, Umbrella plant response rating ([7]; 62 g ai/ha, scale 0 to 100): 0 | Sedge, Umbrella plant response rating [7, 16]: 45 | Sedge, Umbrella plant response rating [7, 17]: 65 | Plant response rating, Sedge, Umbrella [7, 18]: 90 | Ducksalad plant response rating (ducksalad [8]; 62 g ai/ha, scale 0 to 100): 0 | Ducksalad plant response rating (ducksalad [8]; [16]): 45 | Ducksalad plant response rating (ducksalad [8]; [17]): 45 | Plant response rating, Ducksalad (ducksalad [8]; [18]): 95 | Barnyardgrass plant response rating (barnyardgrass [9]; [19]): 0 | Barnyardgrass plant response rating (barnyardgrass [9]; [16]): 0 | Barnyardgrass plant response rating (barnyardgrass [9]; [17]): 15 | Plant response rating, Barnyardgrass (barnyardgrass [9]; [18]): 40

C#CCNC(=O)c1cccc(NC(=O)c2nn(C(C)(C)C)nc2C)c1 [Compound 394]
Plant response rating (0 to 100 scale), Barnyardgrass (barnyardgrass [1]; [10]): 30 | Barnyardgrass plant response rating (barnyardgrass [1]; [11]): 0 | Barnyardgrass plant response rating (barnyardgrass [1]; [15]): 10 | Plant response rating (0 to 100 scale), Surinam Grass (Surinam grass; 125 g ai/ha): 10 | Surinam Grass plant response rating (Surinam grass; [13]): 10 | Surinam Grass plant response rating (Surinam grass; Postemergence, 500 g ai/ha): 20 | Plant response rating (0 to 100 scale), Cocklebur (cocklebur; [10]): 20 | Cocklebur plant response rating (cocklebur; [11]): 10 | Cocklebur plant response rating (cocklebur; [15]): 20 | Plant response rating (0 to 100 scale), Corn (corn; [10]): 0 | Corn plant response rating (corn; [11]): 0 | Corn plant response rating (corn; [15]): 10 | Plant response rating (0 to 100 scale), Crabgrass, Large (large crabgrass; [10]): 40 | Crabgrass, Large plant response rating (large crabgrass; [11]): 10 | Crabgrass, Large plant response rating (large crabgrass; [15]): 20 | Plant response rating (0 to 100 scale), Foxtail, Giant (giant foxtail; [10]): 10 | Foxtail, Giant plant response rating (giant foxtail; [11]): 20 | Foxtail, Giant plant response rating (giant foxtail; [15]): 30 | Plant response rating (0 to 100 scale), Lambsquarters (lambsquarters; 125 g ai/ha): 10 | Lambsquarters plant response rating (lambsquarters; [13]): 30 | Lambsquarters plant response rating (lambsquarters; Postemergence, 500 g ai/ha): 60 | Plant response rating (0 to 100 scale), Morningglory (morningglory; 125 g ai/ha): 0 | Morningglory plant response rating (morningglory; [13]): 20 | Morningglory plant response rating (morningglory; Postemergence, 500 g ai/ha): 20 | Plant response rating (0 to 100 scale), Pigweed (pigweed; 125 g ai/ha): 10 | Pigweed plant response rating (pigweed; [13]): 30 | Pigweed plant response rating (pigweed; Postemergence, 500 g ai/ha): 60 | Plant response rating (0 to 100 scale), Velvetleaf (velvetleaf; 125 g ai/ha): 0 | Velvetleaf plant response rating (velvetleaf; [13]): 10 | Velvetleaf plant response rating (velvetleaf; Postemergence, 500 g ai/ha): 30 | Blackgrass plant response rating (blackgrass; [11]): 0 | Blackgrass plant response rating (blackgrass; [15]): 20 | Wheat plant response rating (wheat; [11]): 0 | Wheat plant response rating (wheat; [14]): 20 | Wheat plant response rating (wheat; [15]): 0 | Oat, Wild plant response rating (wild oat; [13]): 0 | Oat, Wild plant response rating (wild oat; Postemergence, 500 g ai/ha): 0 | Rice plant response rating (rice [2]): 60 | Sedge, Umbrella plant response rating [3]: 90 | Ducksalad plant response rating (ducksalad [4]): 80 | Barnyardgrass plant response rating (barnyardgrass [5]): 70 | Rice plant response rating (rice [6]; 62 g ai/ha, scale 0 to 100): 0 | Rice plant response rating (rice [6]; [16]): 0 | Rice plant response rating (rice [6]; [17]): 45 | Plant response rating, Rice (rice [6]; [18]): 60 | Sedge, Umbrella plant response rating ([7]; 62 g ai/ha, scale 0 to 100): 0 | Sedge, Umbrella plant response rating [7, 16]: 35 | Sedge, Umbrella plant response rating [7, 17]: 60 | Plant response rating, Sedge, Umbrella [7, 18]: 70 | Ducksalad plant response rating (ducksalad [8]; 62 g ai/ha, scale 0 to 100): 0 | Ducksalad plant response rating (ducksalad [8]; [16]): 0 | Ducksalad plant response rating (ducksalad [8]; [17]): 10 | Plant response rating, Ducksalad (ducksalad [8]; [18]): 45 | Barnyardgrass plant response rating (barnyardgrass [9]; [19]): 0 | Barnyardgrass plant response rating (barnyardgrass [9]; [16]): 0 | Barnyardgrass plant response rating (barnyardgrass [9]; [17]): 0 | Plant response rating, Barnyardgrass (barnyardgrass [9]; [18]): 20
